From US20170226120A1, “INHIBITORS OF HIF PROLYL HYDROXYLASE” (MERCK SHARP & DOHME CORP., priority 2014, published 2017)

Molecular target: T1, human HIF-PHD2 (Homo sapiens, UniProt Q9GZT9)
T1 construct: FLAG-tagged full length PHD2 expressed in and purified from baculovirus-infected Sf9 cells; FLAG; made in house; host or cells: baculovirus-infected Sf9 cells
Assay: HIF-PHD2 inhibition, time resolved fluorescence assay of HIF-1α peptide hydroxylation
Type: biochemical
Settings: FLAG-tagged full length PHD2; 0.2 μM 2-oxoglutarate, 0.5 μM HIF-1α peptide
Method: To each well of a 384-well plate, 1 μL of test compounds in DMSO (final concentration ranging from 0.3 nM to 10 uM) were added into 20 μl of assay buffer (50 mM Tris pH 7.4/0.01% Tween-20/0.1 mg/ml bovine serum albumin/10 μM ferrous sulfate/1 mM sodium ascorbate/20 μg/ml catalase) containing 0.15 μg/ml FLAG-tagged full length PHD2 expressed in and purified from baculovirus-infected Sf9 cells. After a 5 min preincubation at room temperature, the enzymatic reactions were initiated by the addition of 4 μL of substrates {final concentrations of 0.2 μM 2-oxoglutarate and 0.5 μM HIF-1α peptide biotinyl-[…] […] After incubation for 45 minutes at room temperature, the reactions were terminated by the addition of a 25 μL quench/detection mix to a final concentration of 1 mM ortho-phenanthroline, 0.1 mM EDTA, 0.5 nM anti-(His)6 LANCE reagent (Perkin-Elmer Life Sciences), 100 nM AF647-labeled streptavidin (Invitrogen), and 2 μg/ml (His)6-VHL complex {S. Tan Protein Expr. Purif.

T1 sequence (Q9GZT9 whole entry): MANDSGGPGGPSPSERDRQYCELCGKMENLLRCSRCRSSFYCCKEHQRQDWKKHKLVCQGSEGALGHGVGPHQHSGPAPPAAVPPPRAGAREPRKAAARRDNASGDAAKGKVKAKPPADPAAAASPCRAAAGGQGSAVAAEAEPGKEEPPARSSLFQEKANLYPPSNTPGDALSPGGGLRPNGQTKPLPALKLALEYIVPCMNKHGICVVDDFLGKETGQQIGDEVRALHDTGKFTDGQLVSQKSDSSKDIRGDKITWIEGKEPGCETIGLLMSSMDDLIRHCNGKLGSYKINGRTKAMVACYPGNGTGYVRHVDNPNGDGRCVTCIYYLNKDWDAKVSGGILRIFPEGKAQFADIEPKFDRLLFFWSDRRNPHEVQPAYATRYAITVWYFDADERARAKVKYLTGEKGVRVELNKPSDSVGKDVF

Point of comparison: `COc1ccc(Cn2c3c(c(O)c(C(=O)NCC(=O)O)c2=O)COC3)cc1` [Example 28, 2-(4-hydroxy-1-(4-methoxybenzyl)-2-oxo-1,2,5,7-tetrahydrofuro[3,4-b]pyridine-3-carboxamido)acetic acid], IC50 2.8 nM. Against it:
- N#Cc1cccc(Cn2c3c(c(O)c(C(=O)NCC(=O)O)c2=O)COC3)c1 [Example 34, 2-(1-(3-cyanobenzyl)-4-hydroxy-2-oxo-1,2,5,7-tetrahydrofuro[3,4-b]pyridine-3-carboxamido)acetic acid] — within 1.5-fold, 2.5 nM
- CC(c1ccc(C(F)(F)F)cc1)n1c2c(c(O)c(C(=O)NCC(=O)O)c1=O)COC2 (stereo not shown) [Example 56, 2-(4-hydroxy-2-oxo-1-(1-(4-(trfluoromethyl)phenyl)ethyl)-1,2,5,7-tetrahydrofuro[3,4-b]pyridine-3-carboxamido)acetic acid] — 7-fold higher, 19.6 nM
- N#Cc1ccccc1Cn1c2c(c(O)c(C(=O)NCC(=O)O)c1=O)COC2 [Example 33, 2-(1-(2-cyanobenzyl)-4-hydroxy-2-oxo-1,2,5,7-tetrahydrofuro[3,4-b]pyridine-3-carboxamido)acetic acid] — 1.6-fold higher, 4.6 nM
- O=C(O)CNC(=O)c1c(O)c2c(n(Cc3ccc(C(=O)O)cc3)c1=O)COC2 [Example 57, 4-((3-((Carboxymethyl)carbamoyl)-4-hydroxy-2-oxofuro[3,4-b]pyridin-1(2H,5H,7H)-yl)methyl)benzoic acid] — 2.6-fold higher, 7.2 nM
- O=C(O)CNC(=O)c1c(O)c2c(n(Cc3cncc(F)c3)c1=O)COC2 [Example 10, 2-(1-((5-fluoropyridin-3-yl)methyl)-4-hydroxy-2-oxo-1,2,5,7-tetrdhydrofuro[3,4-b]pyridine-3-carboxamido)acetic acid] — 2-fold higher, 5.7 nM
- O=C(O)CNC(=O)c1c(O)c2c(n(Cc3ccc(F)c(F)c3)c1=O)COC2 [Example 31, 2-(1-(3,4-difluorobenzyl)-4-hydroxy-2-oxo-1,2,5,7-tetrahydrofuro[3,4-b]pyridine-3-carboxamido)acetic acid] — within 1.5-fold, 2.7 nM
- O=C(O)CNC(=O)c1c(O)c2c(n(Cc3ccc4ccccc4c3)c1=O)COC2 [Example 47, 2-(4-hydroxy-1-(naphthalen-2-ylmethyl)-2-oxo-1,2,5,7-tetrahydrofuro[3,4-b]pyridine-3-carboxamido)acetic acid] — 2.4-fold higher, 6.8 nM
- C=Cc1ccc(Cn2c3c(c(O)c(C(=O)NCC(=O)O)c2=O)COC3)cn1 [Example 62, 2-(4-Hydroxy-2-oxo-1-((6-vinylpyridin-3-yl)methyl)-1,2,5,7-tetrahydrofuro[3,4-b]pyridine-3-carboxamido)acetic acid] — within 1.5-fold, 3.7 nM
- Cc1cc(Cn2c3c(c(O)c(C(=O)NCC(=O)O)c2=O)COC3)ccc1C#N [Example 44, 2-(1-(4-cyano-3-methylbenzyl)-4-hydroxy-2-oxo-1,2,5,7-tetrahydrofuro[3,4-b]pyridine-3-carboxamido)acetic acid] — within 1.5-fold, 3.1 nM
- Cn1ccc(Cn2c3c(c(O)c(C(=O)NCC(=O)O)c2=O)COC3)n1 [Example 16, 2-(4-hydroxy-1-((1-methyl-1H-pyrazol-3-yl)methyl)-2-oxo-1,2,5,7-tetrahydrofuro[3,4-b]pyridine-3-carboxamido)acetic acid] — 2.5-fold higher, 7.1 nM
- O=C(O)CNC(=O)c1c(O)c2c(n(Cc3cc[nH]n3)c1=O)COC2 [Example 4, 2-(1-((1H-pyrazol-3-yl)methyl)-4-hydroxy-2-oxo-1,2,5,7-tetrahydrofuro[3,4-b]pyridine-3-carboxamido)acetic acid] — 3.3-fold higher, 9.2 nM
- O=C(N[C@@H](CO)C(=O)O)c1c(O)c2c(n(Cc3ccc(C(F)(F)F)cc3)c1=O)COC2 [Example 2, (S)-3-hydroxy-2-(4-hydroxy-2-oxo-1-(4-(trifluoromethyl)benzyl)-1,2,5,7-tetrahydrofuro[3,4-b]pyridine-3-carboxamido)propanoic acid] — 39-fold higher, 109 nM
- Cc1cc(C(=O)O)ccc1-c1ccc(Cn2c3c(c(O)c(C(=O)NCC(=O)O)c2=O)COC3)cc1 [Example 64, 4′-((3-((Carboxymethyl)carbamoyl)-4-hydroxy-2-oxofuro[3,4-b]pyridin-1(2H,5H,7H)-yl)methyl)-2-methyl-[1,1′-biphenyl]-4-carboxylic acid] — 2.3-fold lower, 1.2 nM
- O=C(O)CNC(=O)c1c(O)c2c(n(Cc3cccc(Cl)c3)c1=O)COC2 [Example 38, 2-(1-(3-chlorobenzyl)-4-hydroxy-2-oxo-1,2,5,7-tetrahydrofuro[3,4-b]pyridine-3-carboxamido)acetic acid] — 1.5-fold higher, 4.3 nM
- COC(=O)c1ccccc1Cn1c2c(c(O)c(C(=O)NCC(=O)O)c1=O)COC2 [Example 39, 2-(4-hydroxy-1-(2-(methoxycarbonyl)benzyl)-2-oxo-1,2,5,7-tetrahydrofuro[3,4-b]pyridine-3-carboxamido)acetic acid] — 7-fold higher, 19.7 nM
- O=C(N[C@H](CO)C(=O)O)c1c(O)c2c(n(Cc3ccc(C(F)(F)F)cc3)c1=O)COC2 [Example 1, (R)-3-Hydroxy-2-(4-hydroxy-2-oxo-1-(4-(trifluoromethyl)benzyl)-1,2,5,7-tetrahydrofuro[3,4-b]pyridine-3-carboxamido)propanoic acid] — 21-fold higher, 59.7 nM
- Cn1c2c(c(O)c(C(=O)NCC(=O)O)c1=O)COC2 [Example 55, 2-(1-methyl-4-hydroxy-2-oxo-1,2,5,7-tetrahydrofuro[3,4-b]pyridine-3-carboxamido)acetic acid] — 3.7-fold higher, 10.4 nM
- O=C(O)CNC(=O)c1c(O)c2c(n(Cc3cnc4ccccc4c3)c1=O)COC2 [Example 48, 2-(4-hydroxy-2-oxo-1-(quinolin-3-ylmethyl)-1,2,5,7-tetrahydrofuro[3,4-b]pyridine-3-carboxamido)acetic acid] — 4.5-fold higher, 12.6 nM
- N#Cc1ccc(Cn2c3c(c(O)c(C(=O)NCC(=O)O)c2=O)COC3)c(F)c1 [Example 13, 2-(1-(4-cyano-2-fluorobenzyl)-4-hydroxy-2-oxo-1,2,5,7-tetrahydrofuro[3,4-b]pyridine-3-carboxamido)acetic acid] — within 1.5-fold, 3 nM
- O=C(O)CNC(=O)c1c(O)c2c(n(Cc3ccccc3F)c1=O)COC2 [Example 35, 2-(1-(2-fluorobenzyl)-4-hydroxy-2-oxo-1,2,5,7-tetrahydrofuro[3,4-b]pyridine-3-carboxamido)acetic acid] — 1.6-fold higher, 4.6 nM
- O=C(O)CNC(=O)c1c(O)c2c(n(Cc3ccc(C(F)(F)F)c(Br)c3)c1=O)COC2 [Example 45, 2-(1-(3-bromo-4-(trifluoromethyl)benzyl)-4-hydroxy-2-oxo-1,2,5,7-tetrahydrofuro[3,4-b]pyridine-3-carboxamido)acetic acid] — within 1.5-fold, 3.3 nM
- O=C(O)CNC(=O)c1c(O)c2c(n(Cc3ccc(F)cn3)c1=O)COC2 [Example 14, 2-(1-((5-fluoropyridin-2-yl)methyl)-4-hydroxy-2-oxo-1,2,5,7-tetrahydrofuro[3,4-b]pyridine-3-carboxamido)acetic acid] — 2.4-fold higher, 6.6 nM
- O=C(O)CNC(=O)c1c(O)c2c(n(Cc3cnco3)c1=O)COC2 [Example 20, 2-(4-hydroxy-1-(oxazol-5-ylmethyl)-2-oxo-1,2,5,7-tetrahydrofuro[3,4-b]pyridine-3-carboxamido)acetic acid] — 2.6-fold higher, 7.4 nM
- CCn1c2c(c(O)c(C(=O)NCC(=O)O)c1=O)COC2 [Example 54, 2-(1-ethyl-4-hydroxy-2-oxo-1,2,5,7-tetrahydrofuro[3,4-b]pyridine-3-carboxamido)acetic acid] — 6.2-fold higher, 17.4 nM
